# Measurements published in PMC3166647 (Analytical and bioanalytical chemistry, 2011).
# Molecular target: T1, methionine aminopeptidase 1 (MetAP1) (Plasmodium yoelii, UniProt Q7RFT5)
# T1 sequence (Q7RFT5 1-491): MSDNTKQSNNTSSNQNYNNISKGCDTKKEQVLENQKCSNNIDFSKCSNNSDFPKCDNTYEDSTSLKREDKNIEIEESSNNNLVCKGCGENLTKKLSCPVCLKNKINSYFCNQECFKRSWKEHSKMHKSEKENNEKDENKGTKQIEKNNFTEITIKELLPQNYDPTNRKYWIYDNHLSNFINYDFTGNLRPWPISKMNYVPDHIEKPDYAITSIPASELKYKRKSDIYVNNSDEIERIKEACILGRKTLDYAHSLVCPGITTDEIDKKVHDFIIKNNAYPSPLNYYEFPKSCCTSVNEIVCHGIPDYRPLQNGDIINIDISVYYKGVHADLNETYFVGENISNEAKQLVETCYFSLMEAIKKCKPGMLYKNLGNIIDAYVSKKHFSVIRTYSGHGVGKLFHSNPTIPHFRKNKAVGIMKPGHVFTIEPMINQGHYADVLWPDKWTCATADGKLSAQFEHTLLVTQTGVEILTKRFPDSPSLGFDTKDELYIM
# Assay: competition ultrafiltration with HPLC-UV
# Type: binding
# Conditions: 4 °C; competes with fragments 4-9
smiles,measurement,value
CSCC[C@H](N)C(=O)O [methionine],competition ultrafiltration with HPLC-UV,methionine was able to compete against lower-affinity ligands more efficiently than higher-affinity ligands
